≈ marks a conversion by molar mass, not a printed value.
Experiments:
Assay type in all cases: functional
[1] = test system: Mycobacterium tuberculosis variant bovis; assay: Antitubercular activity against dormant stage Mycobacterium bovis BCG ATCC 35734 at 30 ug/ml measured after 12 days by nitrate reductase assay; settings: ATCC 35734, 288 h
[2] = test system: Mycobacterium tuberculosis variant bovis; assay: Antitubercular activity against dormant stage Mycobacterium bovis BCG ATCC 35734 at 10 ug/ml measured after 12 days by nitrate reductase assay; settings: ATCC 35734, 288 h
[3] = test system: Mycobacterium tuberculosis variant bovis; assay: Antitubercular activity against dormant stage Mycobacterium bovis BCG ATCC 35734 at 3 ug/ml measured after 12 days by nitrate reductase assay; settings: ATCC 35734, 288 h
[4] = test system: Mycobacterium tuberculosis variant bovis; assay: Antitubercular activity against dormant stage Mycobacterium bovis BCG ATCC 35734 measured after 12 days by nitrate reductase assay; settings: ATCC 35734, 288 h
[5] = test system: Mycobacterium tuberculosis variant bovis; assay: Antitubercular activity against active stage Mycobacterium bovis BCG ATCC 35734 measured after 8 days by nitrate reductase assay; settings: ATCC 35734, 192 h

Row | Structure (SMILES) | inhibition at 30 µg/mL [1] [%] | inhibition at 10 µg/mL [2] [%] | inhibition at 3 µg/mL [3] [%] | IC50 [4] [µg/mL] | MIC [4] [µg/mL] | IC50 [5] [µg/mL] | MIC [5] [µg/mL]
1 | COCC(=O)NC[C@H]1CN(c2ccc(N3CC4(COC4)C3)c(F)c2)C(=O)O1 | 98.6 | 97.2 | 74.5 | > 100 | > 100 |  | 
2 | CC(=O)OCC(=O)NC[C@H]1CN(c2ccc(N3CC4(COC4)C3)c(F)c2)C(=O)O1 | 99.4 | 99.6 | 99.2 | 3.05 (≈ 7.49 µM) | 5.77 (≈ 14.2 µM) | 3.35 (≈ 8.22 µM) | 6.32 (≈ 15.5 µM)
3 | O=C1O[C@@H](CNS(=O)(=O)c2cc([N+](=O)[O-])ccc2Cl)CN1c1ccc(N2CC3(COC3)C2)c(F)c1 | 15 | 11.6 | 11.1 | > 100 | > 100 |  | 
4 | O=C1O[C@@H](CNS(=O)(=O)c2cccc(C(F)(F)F)c2)CN1c1ccc(N2CC3(COC3)C2)c(F)c1 | -5.29 | -6.57 | -2.23 | > 100 | > 100 |  | 
5 | COc1ccc(NC(=S)NC[C@H]2CN(c3ccc(N4CC5(COC5)C4)c(F)c3)C(=O)O2)cc1 | 73.2 | 63 | 18.9 | > 100 | > 100 |  | 
6 | O=C(NC[C@H]1CN(c2ccc(N3CC4(COC4)C3)c(F)c2)C(=O)O1)c1cccnc1 | 102 | 101 | 76.2 | > 100 | > 100 |  | 
7 | O=C1O[C@@H](CNC(=S)Nc2ccc(Cl)cc2)CN1c1ccc(N2CC3(COC3)C2)c(F)c1 | -26.1 | -10.1 | -1.89 | > 100 | > 100 |  | 
8 | O=C1O[C@@H](CNC(=S)Nc2cccc(C(F)(F)F)c2)CN1c1ccc(N2CC3(COC3)C2)c(F)c1 | 94.8 | 83.9 | 29.6 | > 100 | > 100 |  | 
9 | NC[C@H]1CN(c2ccc(N3CC4(COC4)C3)c(F)c2)C(=O)O1 | 89.4 | 52 | -0.29 | 17.3 (≈ 56.4 µM) | 24.4 (≈ 79.2 µM) | 15.7 (≈ 51.2 µM) | 29.5 (≈ 96 µM)
10 | O=C(NC[C@H]1CN(c2ccc(N3CC4(COC4)C3)c(F)c2)C(=O)O1)c1ccno1 | 89 | 86.1 | 66.9 | 4.83 (≈ 12 µM) | 10.1 (≈ 25.2 µM) | 4.11 (≈ 10.2 µM) | 9.82 (≈ 24.4 µM)
11 | O=C1O[C@@H](CNC(=S)Nc2ccc([N+](=O)[O-])cc2)CN1c1ccc(N2CC3(COC3)C2)c(F)c1 | -6.89 | -15.8 | 39.9 | > 100 | > 100 |  | 
12 | O=C1OC2(CCNC2)CN1c1ccc(N2CCOCC2)c(F)c1 (centres undefined) | -7.3 | -16.8 | -3.11 | > 100 | > 100 |  | 
13 | O=C(NC[C@H]1CN(c2ccc(N3CC4(COC4)C3)c(F)c2)C(=O)O1)c1ccc(C(F)(F)F)cc1 | 73.1 | 8.62 | 65 | > 100 | > 100 |  | 
14 | OC1(CNc2ccc(N3CCOCC3)c(F)c2)CCN(Cc2ccccc2)C1 (centres undefined) | -1.83 | -6.66 | -6.7 | > 100 | > 100 |  | 
15 | CC(=O)NC[C@H]1CN(c2ccc(N3CC4(COC4)C3)c(F)c2)C(=O)O1 | 95.9 | 100 | 99.1 | 0.81 (≈ 2.32 µM) | 1.67 (≈ 4.78 µM) | 0.79 (≈ 2.26 µM) | 1.83 (≈ 5.24 µM)
16 | CC(=O)NC[C@H]1CN(c2ccc(C3=C[C@H]4CC[C@@H](C3)N4C(=O)OC(C)(C)C)c(F)c2)C(=O)O1 | 96.3 | 89.3 | 57.9 | 5.82 (≈ 12.7 µM) | 23.1 (≈ 50.4 µM) | 4.35 (≈ 9.47 µM) | 31.2 (≈ 67.8 µM)
17 | N#Cc1ccc(NC(=S)NC[C@H]2CN(c3ccc(N4CC5(COC5)C4)c(F)c3)C(=O)O2)cc1 | 88.1 | 97.2 | 97.4 | > 100 | > 100 |  | 
18 | CC(C)(C)NC(=S)NC[C@H]1CN(c2ccc(N3CC4(COC4)C3)c(F)c2)C(=O)O1 | 33.6 | -3.89 | -9.84 | > 100 | > 100 |  | 
19 | O=C1OC2(CCN(Cc3ccccc3)C2)CN1c1ccc(N2CCOCC2)c(F)c1 (centres undefined) | -11.2 | -9.32 | -11.8 | > 100 | > 100 |  | 
20 | O=C1O[C@@H](CNC(=O)C23CC4CC(CC(C4)C2)C3)CN1c1ccc(N2CC3(COC3)C2)c(F)c1 | 62.6 | 44.1 | 11.8 | > 100 | > 100 |  | 
21 | CC(=O)N1CCC2(C1)CN(c1ccc(N3CCOCC3)c(F)c1)C(=O)O2 (centres undefined) | 8.79 | -3.02 | -2.09 | > 100 | > 100 |  | 
22 | O=C1O[C@@H](CNS(=O)(=O)c2cc(Cl)cc(Cl)c2)CN1c1ccc(N2CC3(COC3)C2)c(F)c1 | 3.87 | -2.28 | 25.9 | > 100 | > 100 |  | 
23 | O=C1O[C@@H](CNC(=S)Nc2ccccc2F)CN1c1ccc(N2CC3(COC3)C2)c(F)c1 | 94.7 | 92.9 | 42.1 | 17.7 (≈ 38.4 µM) | 61.2 (≈ 133 µM) | 13.1 (≈ 28.4 µM) | 44.5 (≈ 96.5 µM)
24 | O=C(NC[C@H]1CN(c2ccc(N3CC4(COC4)C3)c(F)c2)C(=O)O1)Nc1ccc(Cl)cc1 | 28.6 | -3.58 | -5.78 | > 100 | > 100 |  | 
25 | CC(C)NC(=S)NC[C@H]1CN(c2ccc(N3CC4(COC4)C3)c(F)c2)C(=O)O1 | 94.4 | 74.6 | 21.9 | > 100 | > 100 |  | 
26 | CC1(C)[C@@]2(C)CC[C@]1(C(=O)NC[C@H]1CN(c3ccc(N4CC5(COC5)C4)c(F)c3)C(=O)O1)OC2=O | 8.27 | 3.86 | -35.3 | > 100 | > 100 |  | 
27 | O=C1O[C@@H](CNS(=O)(=O)c2ccc(Cl)s2)CN1c1ccc(N2CC3(COC3)C2)c(F)c1 | 91.7 | 83.5 | 34.8 | > 100 | > 100 |  | 
28 | CC(=O)NC[C@H]1CN(c2ccc(N3CCOCC3)c(F)c2)C(=O)O1 [LINEZOLID] | 101 | 101 | 101 | 0.31 (≈ 0.919 µM) | 0.43 (≈ 1.27 µM) | 0.029 (≈ 0.086 µM) | 0.42 (≈ 1.24 µM)
